{"source": "patent US20060069132A1", "about": "“Azolecarboxamide herbicides” (priority 2004, published 2006)", "key": {"barnyardgrass [1]": {"system": "barnyardgrass", "assay": "Test B pre-/postemergence herbicide test", "format": "in vivo, Echinochloa crus-galli", "settings": "for Barnyardgrass plant response rating: postemergence", "in_short": "(§1)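 Herbicidal effect was judged by eye on a 0–100 scale after plants stood 13 to 15 days in the greenhouse following pre- or postemergence treatment with surfactant-containing formulations.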"}, "Surinam grass": {"system": "Surinam grass", "assay": "Test B pre-/postemergence herbicide test", "format": "in vivo, Urochloa decumbens", "settings": "for Surinam Grass plant response rating: scale 0 (no effect) to 100 (complete control)", "in_short": "(§2)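 Flooded paddy rice and barnyardgrass were treated at the 2-leaf stage; upland plantings received compound either on sown seed or on 1- to 4-leaf seedlings. All were kept 13–15 days in a greenhouse and scored visually, 0–100, relative to untreated plants.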"}, "cocklebur": {"system": "cocklebur", "assay": "Test B pre-/postemergence herbicide test", "format": "in vivo, Xanthium strumarium", "settings": "for Cocklebur plant response rating: postemergence", "in_short": "as §1"}, "corn": {"system": "corn", "assay": "Test B pre-/postemergence herbicide test", "format": "in vivo, Zea mays", "settings": "for Corn plant response rating: postemergence", "in_short": "as §2"}, "large crabgrass": {"system": "large crabgrass", "assay": "Test B pre-/postemergence herbicide test", "format": "in vivo, Digitaria sanguinalis", "settings": "for Crabgrass, Large plant response rating: postemergence", "in_short": "as §2"}, "giant foxtail": {"system": "giant foxtail", "assay": "Test B pre-/postemergence herbicide test", "format": "in vivo, Setaria faberi", "settings": "for Foxtail, Giant plant response rating: postemergence", "in_short": "as §2"}, "lambsquarters": {"system": "lambsquarters", "assay": "Test B pre-/postemergence herbicide test", "format": "in vivo, Chenopodium album", "settings": "for Lambsquarters plant response rating: scale 0 (no effect) to 100 (complete control)", "in_short": "as §2"}, "morningglory": {"system": "morningglory", "assay": "Test B pre-/postemergence herbicide test", "format": "in vivo, Ipomoea coccinea", "settings": "for Morningglory plant response rating: scale 0 (no effect) to 100 (complete control)", "in_short": "as §1"}, "pigweed": {"system": "pigweed", "assay": "Test B pre-/postemergence herbicide test", "format": "in vivo, Amaranthus retroflexus", "settings": "for Pigweed plant response rating: scale 0 (no effect) to 100 (complete control)", "in_short": "as §2"}, "velvetleaf": {"system": "velvetleaf", "assay": "Test B pre-/postemergence herbicide test", "format": "in vivo, Abutilon theophrasti", "settings": "for Velvetleaf plant response rating: scale 0 (no effect) to 100 (complete control)", "in_short": "as §2"}, "blackgrass": {"system": "blackgrass", "assay": "Test B postemergence herbicide test", "format": "in vivo, Alopecurus myosuroides", "settings": "postemergence", "in_short": "(§3)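 Treated at 2-leaf (paddy) or 1–4-leaf, 2–18 cm (postemergence); greenhouse 13–15 d; visual score vs control, 0 none to 100 complete control; dash = not tested.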"}, "wheat": {"system": "wheat", "assay": "Test B postemergence herbicide test", "format": "in vivo, Triticum aestivum", "design": "key to Wheat plant response rating: 0 = no effect, 100 = complete control", "in_short": "as §3"}, "wild oat": {"system": "wild oat", "assay": "Test B postemergence herbicide test", "format": "in vivo, Avena fatua", "settings": "scale 0 (no effect) to 100 (complete control)", "in_short": "as §3"}, "rice [2]": {"system": "rice", "assay": "Test B flooded paddy test", "format": "in vivo, Oryza sativa", "settings": "1000 g ai/ha, scale 0 to 100 (0 no effect, 100 complete control)", "in_short": "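After treating 2-leaf paddy plants or 2–18 cm postemergence plants (1 to 4 leaves) with formulated chemical, researchers kept them in a greenhouse for 13–15 days. Effects were judged visually versus controls: 0 indicates none, 100 total control.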"}, "[3]": {"system": "small flower umbrella sedge", "assay": "Test B flooded paddy test", "format": "in vivo, Cyperus difformis", "settings": "1000 g ai/ha, scale 0 to 100 (0 no effect, 100 complete control)", "in_short": "as §3"}, "ducksalad [4]": {"system": "ducksalad", "assay": "Test B flooded paddy test", "format": "in vivo, Heteranthera limosa", "settings": "1000 g ai/ha, scale 0 to 100 (0 no effect, 100 complete control)", "in_short": "as §3"}, "barnyardgrass [5]": {"system": "barnyardgrass", "assay": "Test B flooded paddy test", "format": "in vivo, Echinochloa crus-galli", "settings": "1000 g ai/ha, scale 0 to 100 (0 no effect, 100 complete control)", "in_short": "as §3"}, "rice [6]": {"system": "rice", "assay": "Test C flooded paddy test", "format": "in vivo, Oryza sativa", "in_short": "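Plants were grown to the 1- to 4-leaf stage (2–18 cm) and then treated postemergence, or grown to the 2-leaf stage for the flooded paddy test. They were held in a greenhouse for 12 to 14 days and then scored by eye against controls, where 0 is no effect and 100 is complete control.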"}, "[7]": {"system": "smallflower umbrella sedge", "assay": "Test C flooded paddy test", "format": "in vivo, Cyperus difformis"}, "ducksalad [8]": {"system": "ducksalad", "assay": "Test C flooded paddy test", "format": "in vivo, Heteranthera limosa"}, "barnyardgrass [9]": {"system": "barnyardgrass", "assay": "Test C flooded paddy test", "format": "in vivo, Echinochloa crus-galli", "in_short": "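After a postemergence application at 1 to 4 leaves (plants 2–18 cm high), or at 2 leaves for barnyardgrass in flooded paddy, plants stayed in the greenhouse for 12 to 14 days. Damage was then judged visually relative to control plants, with 100 indicating complete control.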"}, "[10]": {"settings": "125 g ai/ha, 0 is no effect, 100 is complete control, preemergence"}, "[11]": {"settings": "125 g ai/ha, visual rating, scale 0 (no effect) to 100 (complete control)"}, "[12]": {"settings": "500 g ai/ha, scale 0 to 100, 0 is no effect, 100 is complete control"}, "[13]": {"settings": "125 g ai/ha, visual rating, postemergence"}, "[14]": {"settings": "125 g ai/ha, scale 0 to 100 (0 no effect, 100 complete control)"}, "[15]": {"settings": "250 g ai/ha, scale of 0 to 100, 0 is no effect, 100 is complete control"}, "[16]": {"settings": "500 g ai/ha, visual rating after 12 to 14 days, scale 0 to 100 (0 no effect, 100 complete control)"}}, "data": [{"smiles": "C=CCNC(=O)c1ccc(F)c(NC(=O)c2nn(C(C)(C)C)nc2CC)c1", "note": "[Compound 383]", "values": [{"measurement": "Plant response rating (0 to 100 scale), Barnyardgrass", "setting": "barnyardgrass [1]; [10]", "result": 10}, {"measurement": "Barnyardgrass plant response rating", "setting": "barnyardgrass [1]; [11]", "result": 0}, {"measurement": "Barnyardgrass plant response rating", "setting": "barnyardgrass [1]; [12]", "result": 0}, {"measurement": "Plant response rating (0 to 100 scale), Surinam Grass", "setting": "Surinam grass; [10]", "result": 10}, {"measurement": "Surinam Grass plant response rating", "setting": "Surinam grass; [13]", "result": 10}, {"measurement": "Surinam Grass plant response rating", "setting": "Surinam grass; Postemergence, 500 g ai/ha", "result": 20}, {"measurement": "Plant response rating (0 to 100 scale), Cocklebur", "setting": "cocklebur; [10]", "result": 0}, {"measurement": "Cocklebur plant response rating", "setting": "cocklebur; [11]", "result": 0}, {"measurement": "Cocklebur plant response rating", "setting": "cocklebur; [12]", "result": 10}, {"measurement": "Plant response rating (0 to 100 scale), Corn", "setting": "corn; [10]", "result": 0}, {"measurement": "Corn plant response rating", "setting": "corn; [11]", "result": 0}, {"measurement": "Corn plant response rating", "setting": "corn; [12]", "result": 0}, {"measurement": "Plant response rating (0 to 100 scale), Crabgrass, Large", "setting": "large crabgrass; [10]", "result": 50}, {"measurement": "Crabgrass, Large plant response rating", "setting": "large crabgrass; [11]", "result": 0}, {"measurement": "Crabgrass, Large plant response rating", "setting": "large crabgrass; [12]", "result": 10}, {"measurement": "Plant response rating (0 to 100 scale), Foxtail, Giant", "setting": "giant foxtail; [10]", "result": 10}, {"measurement": "Foxtail, Giant plant response rating", "setting": "giant foxtail; [11]", "result": 0}, {"measurement": "Foxtail, Giant plant response rating", "setting": "giant foxtail; [12]", "result": 0}, {"measurement": "Plant response rating (0 to 100 scale), Lambsquarters", "setting": "lambsquarters; [10]", "result": 40}, {"measurement": "Lambsquarters plant response rating", "setting": "lambsquarters; [13]", "result": 20}, {"measurement": "Lambsquarters plant response rating", "setting": "lambsquarters; Postemergence, 500 g ai/ha", "result": 30}, {"measurement": "Plant response rating (0 to 100 scale), Morningglory", "setting": "morningglory; [10]", "result": 0}, {"measurement": "Morningglory plant response rating", "setting": "morningglory; [13]", "result": 10}, {"measurement": "Morningglory plant response rating", "setting": "morningglory; Postemergence, 500 g ai/ha", "result": 10}, {"measurement": "Plant response rating (0 to 100 scale), Pigweed", "setting": "pigweed; [10]", "result": 0}, {"measurement": "Pigweed plant response rating", "setting": "pigweed; [13]", "result": 20}, {"measurement": "Pigweed plant response rating", "setting": "pigweed; Postemergence, 500 g ai/ha", "result": 30}, {"measurement": "Plant response rating (0 to 100 scale), Velvetleaf", "setting": "velvetleaf; [10]", "result": 10}, {"measurement": "Velvetleaf plant response rating", "setting": "velvetleaf; [13]", "result": 10}, {"measurement": "Velvetleaf plant response rating", "setting": "velvetleaf; Postemergence, 500 g ai/ha", "result": 40}, {"measurement": "Blackgrass plant response rating", "setting": "blackgrass; [11]", "result": 0}, {"measurement": "Blackgrass plant response rating", "setting": "blackgrass; [12]", "result": 20}, {"measurement": "Wheat plant response rating", "setting": "wheat; 125 g ai/ha, visual rating, scale 0 (no effect) to 100 (complete control), postemergence", "result": 0}, {"measurement": "Wheat plant response rating", "setting": "wheat; 500 g ai/ha, scale 0 to 100, 0 no effect, 100 complete control, preemergence", "result": 10}, {"measurement": "Wheat plant response rating", "setting": "wheat; Postemergence, 500 g ai/ha, scale 0 (no effect) to 100 (complete control)", "result": 0}, {"measurement": "Oat, Wild plant response rating", "setting": "wild oat; [13]", "result": 0}, {"measurement": "Oat, Wild plant response rating", "setting": "wild oat; Postemergence, 500 g ai/ha", "result": 20}, {"measurement": "Rice plant response rating", "setting": "rice [2]", "result": 60}, {"measurement": "Sedge, Umbrella plant response rating", "setting": "[3]", "result": 80}, {"measurement": "Ducksalad plant response rating", "setting": "ducksalad [4]", "result": 70}, {"measurement": "Barnyardgrass plant response rating", "setting": "barnyardgrass [5]", "result": 30}, {"measurement": "Rice plant response rating", "setting": "rice [6]; 62 g ai/ha, scale 0 to 100", "result": 0}, {"measurement": "Rice plant response rating", "setting": "rice [6]; [14]", "result": 5}, {"measurement": "Rice plant response rating", "setting": "rice [6]; [15]", "result": 35}, {"measurement": "Plant response rating, Rice", "setting": "rice [6]; [16]", "result": 50}, {"measurement": "Sedge, Umbrella plant response rating", "setting": "[7]; 62 g ai/ha, scale 0 to 100", "result": 0}, {"measurement": "Sedge, Umbrella plant response rating", "setting": "[7]; [14]", "result": 45}, {"measurement": "Sedge, Umbrella plant response rating", "setting": "[7]; [15]", "result": 65}, {"measurement": "Plant response rating, Sedge, Umbrella", "setting": "[7]; [16]", "result": 90}, {"measurement": "Ducksalad plant response rating", "setting": "ducksalad [8]; 62 g ai/ha, scale 0 to 100", "result": 0}, {"measurement": "Ducksalad plant response rating", "setting": "ducksalad [8]; [14]", "result": 45}, {"measurement": "Ducksalad plant response rating", "setting": "ducksalad [8]; [15]", "result": 45}, {"measurement": "Plant response rating, Ducksalad", "setting": "ducksalad [8]; [16]", "result": 95}, {"measurement": "Barnyardgrass plant response rating", "setting": "barnyardgrass [9]; 62 g ai/ha, scale 0 to 100 (0 no effect, 100 complete control)", "result": 0}, {"measurement": "Barnyardgrass plant response rating", "setting": "barnyardgrass [9]; [14]", "result": 0}, {"measurement": "Barnyardgrass plant response rating", "setting": "barnyardgrass [9]; [15]", "result": 15}, {"measurement": "Plant response rating, Barnyardgrass", "setting": "barnyardgrass [9]; [16]", "result": 40}]}]}
